Literature values, collected in patent US12673067B2, “Methods, agents, and devices for local neuromodulation of autonomic nerves” (Tulavi Therapeutics, Inc., priority 2016, dated 2026).

Legend:
[1] = biological target: GPR40 (Homo sapiens, UniProt O14842); conditions: at 100 μM
[2] = biological target: T1, GPR120 (Homo sapiens, UniProt Q5NUL3)
T1 sequence (Q5NUL3 1-361): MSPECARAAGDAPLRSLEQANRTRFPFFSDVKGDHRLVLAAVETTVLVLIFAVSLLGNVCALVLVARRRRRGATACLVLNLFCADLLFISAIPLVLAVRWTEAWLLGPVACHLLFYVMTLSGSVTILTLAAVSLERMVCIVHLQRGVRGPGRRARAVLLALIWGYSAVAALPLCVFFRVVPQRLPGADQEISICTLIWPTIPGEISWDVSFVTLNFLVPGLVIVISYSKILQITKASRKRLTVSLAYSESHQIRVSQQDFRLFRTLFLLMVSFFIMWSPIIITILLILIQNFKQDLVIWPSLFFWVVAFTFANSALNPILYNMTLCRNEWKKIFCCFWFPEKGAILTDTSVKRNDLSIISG

Sequence of GPR40 (O14842 whole entry): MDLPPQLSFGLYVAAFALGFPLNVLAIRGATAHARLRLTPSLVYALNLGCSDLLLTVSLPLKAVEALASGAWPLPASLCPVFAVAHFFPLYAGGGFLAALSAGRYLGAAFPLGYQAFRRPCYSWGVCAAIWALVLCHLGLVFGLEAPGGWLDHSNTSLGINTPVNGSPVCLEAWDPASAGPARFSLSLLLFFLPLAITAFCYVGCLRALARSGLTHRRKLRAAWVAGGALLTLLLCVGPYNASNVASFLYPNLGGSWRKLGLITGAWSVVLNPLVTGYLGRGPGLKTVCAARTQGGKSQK

In the case of CC(C)=CCC/C(C)=C/CC/C(C)=C/Cc1c(O)cc(C)c(C(=O)O)c1O [Grifolic acid], the GPR40 activity [1] is listed as “without GPR40 activity” and the GPR120 agonism [2] is listed as “Weak GPR120 partial agonist”.
